Test: phase I pharmacokinetic study of tenatoprazole, oral single dose and daily dose for 7 days
Format: in vivo, Caucasian individuals
Method: The doses tested were 10, 20, 40 and 80 mg of tenatoprazole.

Compound COc1ccc2[nH]c([S+]([O-])Cc3ncc(C)c(OC)c3C)nc2n1 (stereo not drawn) [tenatoprazole, 5-methoxy-2-[[(4-methoxy-3,5-dimethyl-2-pyridyl)methyl]sulfinyl]imidazo[4,5-b]pyridine] has a half-life at 7 days (human, plasma, after administration for seven days, depending on the dose (10-80 mg), read-out: mean elimination half-lives) of 5 to 9.2 h, a T½ elimination half-life (repeated dose (7 days), 40 mg) of 9 h and a T½ elimination half-life (single dose, 80 mg) of 7 h.

Source: US20120122919A1, “PHARMACEUTICAL COMPOSITION COMBINING TENATOPRAZOLE AND A HISTAMINE H2-RECEPTOR ANTAGONIST” (priority 2002, published 2012)
